Measurements reported in patent US8394355B2, “Use of UTP for the diagnosis of stenoses and other conditions of restricted blood flow” (P2 science Aps, priority 2009, dated 2013).
Values joined by “and” are separate entries in the source; they are usually repeats but may differ in a detail not shown here. Equal values may be shown once.

How the values were obtained:
[1] = test system: coronary arteries in humans with coronary artery disease; assay: FFR during continuous intracoronary infusion via guiding catheter (Example 2); type: in vivo; parameters: key to lowest FFR level / difference in FFR between adenosine and UTP / FFR / FFR Mean: FFR = Pd/Pa (distal/proximal coronary pressure ratio); details: for adverse effects during IC continuous infusion / % of patients with FFR ≦ 0.75 / % of patients with FFR ≦ 0.8: guiding catheter study; for % of patients with FFR ≦ 0.75 / % of patients with FFR ≦ 0.8: 240 μg/min (n = 23); for lowest FFR level: lowest mean over the dose response curve, ± 2SEM, P<0.05
Description: The study was performed in 23 patients undergoing elective coronary arteriography (CAG) due to repetitive episodes of typical ischemic chest pain or in patients with recent Non-ST Elevated Myocardial Infarction (>2 days from entry into study). In eligible patients with uni- or multivessel coronary artery disease, lesions with stenosis of at least 50% of their diameter and that were thought to require PCI on the basis of angiographic appearance and clinical data were identified.
In the first part of the experiment, FFR and Coronary Flow (velocity, CFR) were measured after the induction of coronary hyperemia by a continuous intracoronary infusion of UTP (Jena Bioscience GmbH, Germany) and adenosine in random order in a guide catheter (5F catheter, Cordis Corp.). Two UTP doses of 240 and 360 μg/min were tested. UTP was prepared by dissolving 100 mg of UTP trisalt (Sigma Aldrich) in 50 ml isotonic NaCl. Of this 50 ml solution, 40 ml was filter sterilized and added to sterile NaCl solution to a final volume of 500 ml, providing a 0.16 mg/ml concentration. 8-10 50 ml syringes of this solution can be prepared (2 syringes per FFR study). 3 ml/min=480 μg/min=0.9 μmol/min. Subjects thus received either 1.5 ml/min of UTP infusion or 2.25 mL/min of UTP infusion for a total of 3 minutes each. Patients also received adenosine (Sigma Aldrich) in the same eqipotent concentration.
All measurements were performed on at least 2 separate occasions to achieve a reproducible result with a mean value calculated. After each measurement, care was taken that APV returned to baseline before the administration of the next dose. For all measurements using both drugs and both routes of administration, changes in heart rate, blood pressure, and ECG were recorded.
In the second part of the experiment, a full dose response curve was generated for a gradual incremental increase in continuous UTP infusion while both CFR and FFR were measured simultaneously prior to percutaneous coronary intervention (PCI). Hyperemia was induced at 80 μg/min of continuous intracoronary UTP and adenosine, and the flow reserve values were compared (Table 1).
In the third part of the experiment, both CFR and FFR were measured simultaneously after percutaneous coronary intervention (PCI). Hyperemia was induced by either 240 or 360 μg/min of continuous intracoronary UTP and equipotent adenosine, and the flow reserve values were in some patients compared with the hyperemic response of a complete, proximal coronary occlusion for 30 s.
FFR is defined as the ratio of hyperemic flow in a stenotic artery to the hyperemic flow in the same artery if there was no stenosis present. FFR therefore expresses maximum hyperemic blood flow in a stenotic vessel as a fraction of its normal value. FFR can be calculated from intracoronary pressure measurements obtained during maximal hyperemia by the following equation: FFR═Pd−Pv/Pa−Pv→Pd/Pa, where Pa is the mean proximal coronary pressure (mean aortic pressure), Pd is the mean distal coronary pressure, and Pv is the mean central venous pressure. The coronary flow (velocity) reserve is the ratio of maximum to baseline hyperemic coronary flow velocity and is used as a surrogate for CFR. Using the Volcano Combomap®, APV throughout the cardiac phase was measured and CFR calculated from APV(hyperemia)/APV(basal).

[2] = test system: pulmonary and systemic circulation of healthy female pigs; assay: Systemic (central intravenous) nucleotide infusion in pigs, hemodynamic response; type: in vivo; details: for increase in CO (cardiac output): FIG. 7b; for increase in HR from baseline: FIG. 7c; for decrease in SV (stroke volume): FIG. 7d; for MAP lowered by, from baseline: p<0.05, FIG. 7a; for decrease in PVR (pulmonary vascular resistance) from baseline: pig, in vivo
Description: In the present study, the hemodynamic response in the pulmonary and systemic circulation was tested, as well as the effect of central intravenous infusions of ATP, ADP, ADO, and UTP on the heart.
Infusion rates were aimed at exerting a pronounced systemic response in the lowering of arterial blood pressure, but avoiding a total circulatory collapse.
Methods: 10 healthy female pigs (Department of Experimental Medicine and Surgery, University of Copenhagen, Denmark) bred as a combination of the Danish Landrace (⅓) and Yorkshire (⅔), with a medium weight of 41±2 kg were investigated.
Mean arterial blood pressure (MAP) was obtained from the catheter in arcus aorta with the transducer (Pressure Monitoring Kit, Baxter, Deerfield, Ill., USA) positioned at the level of the heart. The left femoral artery was subsequently exposed and an ultrasound doppler probe attached for peripheral femoral artery flow measurements (CM-4000, Cardiomed, Norway). MAP, HR and peripheral flow were monitored and data continuously collected using a PowerLab system (Adinstruments, Australia). Cardiac Output (CO) was determined in triplicates by thermodilution, following an injection of 10 ml of cooled saline solution. Blood samples were withdrawn from catheters in aorta and the right atrium at baseline and at steady state when MAP had decreased maximally or by ˜50%. Calculated variables were: stroke volume of the heart (SV=CO/HR), pulmonary vascular resistance (PVR=(MPAP−PCWP)/CO), systemic vascular resistance (SVR=(MAP−MRAP)/CO), leg vascular conductance (LVC=LBF/(MAP−MRAP)), and arterial (aorta) and mixed venous (pulmonary artery) oxygen content (Hb*1.34*O2 saturation). In the calculation of LVC, MRAP was used as an estimate of mean femoral venous pressure (MFVP), as MRAP was found in a series of measurements to equal MFVP, as estimated in 10 supine pigs. As a potential estimate for myocardial oxygen demand the rate pressure product (RPP=MAP*HR) was also calculated.
Drug infusions: Each animal was administered the nucleotides ATP, UTP, ADP (Sigma, St. Louis, Mo., USA) and ADO (Item Development AB, Stocksund, Sweden), through the internal jugular vein in the right atrium, in random order following blinded allocation. The nucleotides and ADO were prepared by dissolving in saline so as to achieve the target concentration of ATP (40±0.5 μmol/min), ADP (43±8 μmol/min), UTP (up to 1,600 μmol/min), and ADO (73±7 μmol/min). The nucleotides were infused in increasing dosages at 2 min intervals aiming at reducing MAP by maximally ˜50%. Thereafter, that specific infusion rate was maintained for ˜3-5 min. After each intervention the animal rested for ˜30 min, allowing resting cardiovascular variables to be reestablished. Thereafter, a new cycle of nucleotide infusion was administered. In the present study we aimed to allow the drugs to reduce MAP by ˜50%, but without inducing a hemodynamic and circulatory collapse, to simulate a pronounced state of systemic vasodilation, as may be observed for instance in a shock condition.

[3] = mean of six patients, 80 μg/min

| Compound | adverse effects during IC continuous infusion [1] | % of patients with FFR ≦ 0.75 [1] | % of patients with FFR ≦ 0.8 [1] | lowest FFR level [1] | FFR Mean [1, 3] | FFR Mean ([1]; mean, 160 μg/min) | FFR Mean ([1]; mean, 240 μg/min) | FFR Mean ([1]; mean, 320 μg/min) | FFR Mean ([1]; mean, 400 μg/min) | increase in CO (cardiac output) [2] | increase in HR from baseline [2] | decrease in SV (stroke volume) [2] | decrease in SVR (systemic vascular resistance) from baseline ([2]; p<0.05) | increase in LVC (leg vascular conductance) from baseline ([2]; p<0.05) | MAP lowered by, from baseline [2] | decrease in PVR (pulmonary vascular resistance) from baseline [2] | also measured |
| --- | --- | --- | --- | --- | --- | --- | --- | --- | --- | --- | --- | --- | --- | --- | --- | --- | --- |
| O=c1ccn([C@@H]2O[C@H](COP(=O)(O)OP(=O)(O)OP(=O)(O)O)C(O)[C@@H]2O)c(=O)[nH]1 (some centres unmarked) [UTP, Uridine 5-triphosphate] | None of the UTP-treated patients in the current trial had chest pain, dyspnea, second or 3 degree A-V block or changes in systemic blood pressure and heart rate | 47% | 65% | 0.74±0.13 | 0.74 | 0.77 | 0.79 | 0.78 | 0.79 | 72.5±15.2% and ~70% | 51.1±9.0% | did not significantly change SV | 62.9±2.6% | 150.0±17.1% and ~150% | 35.0±3.2% | did not significantly alter | FFR in comparison to adenosine infusion ([1]; all 23 patients, IC 240 μg/min, p=0.003, FIG. 1): significantly decreased; time to induction of maximal hyperemia ([1]; all IC continuous infusion rates, versus adenosine): shorter; optimal dose for achieving maximal coronary hyperemia ([1]; guide catheter method): 80 to 400 µg/min; FFR ([1]; individual patients (row = patient no.), IC continuous infusion 80 μg/min, guide catheter): 0.73 and 0.79 and 0.88 and 0.56; FFR ([1]; individual patients, 160 μg/min): 0.90 and 0.73 and 0.79 and 0.86 and 0.56; FFR ([1]; individual patients, 240 μg/min): 0.89 (2×) and 0.73 and 0.79 and 0.87 and 0.55; FFR ([1]; individual patients, 320 μg/min): 0.90 and 0.89 and 0.72 and 0.77 and 0.86 and 0.56; FFR ([1]; individual patients, 400 μg/min): 0.90 and 0.92 and 0.56; difference in FFR between adenosine and UTP ([1]; standard deviation of 0.15-0.17, p=0.003): 0.05; arrhythmias (missed beats, VT, SVT or AV nodal block) ([2]; intravenous systemic infusion): does not produce arrhythmias; infusion rate giving the ~35% reduction in MAP ([2]; maximal MAP reduction obtainable with UTP): 86.5 ± 18.2 µmol/min; increase in LBF (leg blood flow) ([2]; p<0.05, FIG. 6c): 53.7±17.8% and ~50%; decrease in rate pressure product ([2]; tendency): ~10% |
| Nc1ncnc2c1ncn2[C@@H]1O[C@H](CO)[C@@H](O)[C@H]1O [adenosine] | most patients felt uncomfortable chest pain and 2 patients had 3 degree A-V block | 39% | 43% | 0.81±0.11 | 0.86 | 0.81 | 0.81 | 0.82 | 0.82 | 31.4±9.9% | did not increase | did not significantly change SV | 59.0±3.0% | ~50% | 47.2±1.5% | 34.3±2.6% | FFR ([1]; individual patients (row = patient no.), IC continuous infusion 80 μg/min, guide catheter, listed as ADO): 0.83 and 0.95 and 0.76 and 0.88; FFR ([1]; individual patients, 160 μg/min, listed as ADO): 0.80 and 0.95 and 0.60 and 0.96 and 0.75; FFR ([1]; individual patients, 240 μg/min, listed as ADO): 0.81 and 0.94 and 0.60 and 0.87 and 0.91 and 0.71; FFR ([1]; individual patients, 320 μg/min, listed as ADO): 0.79 and 0.96 and 0.54 and 1.02 and 0.89 and 0.70; FFR ([1]; individual patients, 400 μg/min, listed as ADO): 0.56 and 1.01 and 0.89; decrease in LBF (leg blood flow) from baseline ([2]; p<0.05): 19.4±10.7%; increase in LVC (leg vascular conductance) from baseline ([2]; p<0.05, listed as ADO): 56.4±12.9%; infusion rate at target MAP ([2]; target ~50% reduction in baseline MAP, right atrium infusion): 72.7 ± 6.6 µmol/min |
